Assay results taken from patent US5594144A, “Tropolone derivatives and pharmaceutical composition thereof for preventing and treating ischemic diseases” (The Upjohn Company, priority 1990, dated 1997).

Assays:
[1] = test system: Brain microsomal fractions; test: in vitro Anti-lipid peroxidation effect (TBAR production, Fe3+-ADP/NADPH); assay type: biochemical, rat (SD strain, male)
Description: 1. in vitro Anti-lipid peroxidation effect
Brain microsomal fractions were prepared from male rats of SD strain, and a portion (0.2 mg protein) was incubated at 37° C. for 15 minutes with a mixture of Fe^3+ (0.1 mM)--ADP (0.5 mM) in the presence or absence of the test compound, in final volume of 1 ml of 10 mM HEPES, 150 mM KCl, 0.2 mM NADPH, pH 7.4. After incubation, 1.5 ml of TCA-TBA-HCl reagent (16.7% trichloroacetic acid, 0.4% thiobarbituric acid, 0.278N hydrochloric acid) was added and the reaction mixture was heated in a boiling water for 15 minutes. After cooling in ice-bath, the reaction mixture was centrifuged, and the absorbance of the supernatant at 535 nm was measured. The amount of thiobarbituric acid reactive substance (TBAR) was obtained by calculation using an extinction coefficient of 1.56×10^5 […]. […] The results are shown in Table 1A for compounds of the formulas IA, IB, and IC, respectively. The compounds with highest inhibition rate have the greatest anti-lipid peroxidation effect.

[2] = test system: pig right coronary artery; test: in vitro Ca-antagonism (high K+ induced 45Ca-influx); assay type: cell-based; conditions: Sus scrofa, K+ 75 mM
Description: 2. in vitro Ca-antagonism
A strip of pig right coronary artery was depolarized with high K^+ (75 mM) for 30 minutes to induce voltage dependent ^45 Ca-influx. The extracellular ^45 Ca was chelated by adding EGTA and removed by washing, then the strip was lysed at 100° C. ^45 Ca in this lysate was measured as intracellular ^45 Ca by a scintillation counter. The concentration of the test compound was 10^-7, 10^-6, 10^-5 M, and applied until depolarization by K^+ was completed. Ratio of inhibition at various concentrations of the test compounds for increasing the intracellular ^45 Ca by K^+ was determined. The compound with high inhibition ratio has strong Ca-antagonism.

Row | Compound | Anti-Lipid Peroxidation (% inhibition) 10 μM [1] [%] | Anti-Lipid Peroxidation (% inhibition) 50 μM [1] [%] | inhibition at 10 µM [2] [%]
1 | CC(C)c1ccc(CN2CCN(C(c3ccc(F)cc3)c3ccc(F)cc3)CC2)c(=O)c(NCCCN(C)C)c1 [Compound 2C, 7-[4-(4,4'-difluorobenzhydryl)piperazino-1-methyl]-2-(N-3-dimethylaminopropylamino)-4-isopropyl-2,4,6-cycloheptatrien-1-one] | 29.6 | 90.8 | 63
2 | COc1cc(C(C)C)ccc(C(c2ccccc2)N2CCN(C(c3ccccc3)c3ccc(Cl)cc3)CC2)c1=O (stereo not drawn) [Compound 3A, 7-{1-[4-(4-chlorobenzhydryl)piperazinomethyl]-α-phenyl}-4-isopropyl-2-methoxy-2,4,6-cycloheptatrien-1-one] | 13.8 | 16.3 | 0
3 | CNCCNc1cc(C(C)C)ccc(CN2CCN(C(c3ccc(F)cc3)c3ccc(F)cc3)CC2)c1=O [Compound 3C, 7-[4-(4,4'-difluorobenzhydryl)piperazino-1-methyl]-4-isopropyl-2-(N-2-methylaminoethylamino)-2,4,6-cycloheptatrien-1-one] | 88.0 | 91.6 | 49
4 | COc1cc(C(C)C)ccc(C(C)N2CCN(C(c3ccccc3)c3ccc(Cl)cc3)CC2)c1=O (stereo not drawn) [Compound 4A, 7-{1-[4-(4-chlorobenzhydryl)]piperazinomethyl-α-methyl-}-4-isopropyl-2-methoxy-2,4,6-cycloheptatrien-1-one] | 25.8 | 75.1 | 45
5 | COc1cc(C(C)C)ccc(C2Sc3ccccc3N2Cc2ccccn2)c1=O (stereo not drawn) [Compound 4B, 2-(2'-oxo-3'-methoxy-5'-isopropyl-3',5',7'-cycloheptatrienyl)-3-(2-picolyl)benzothiazoline] | 95.7 | 99.3 | 
6 | CC(C)c1ccc(CN2CCN(C(c3ccc(F)cc3)c3ccc(F)cc3)CC2)c(=O)c(NCCN)c1 [Compound 4C, 2-(N-2-aminoethylamino)-7-[4-(4,4'-difluorobenzhydryl)piperazino-1-methyl]-4-isopropyl-2,4,6-cycloheptatrien-1-one] | 45.2 | 92.9 | 54
7 | CCCCC(c1ccc(C(C)C)cc(OC)c1=O)N1CCN(C(c2ccccc2)c2ccc(Cl)cc2)CC1 (stereo not drawn) [Compound 5A] | 30.5 | 38.7 | 19
8 | COc1cc(C(C)C)ccc(C2Sc3ccccc3N2Cc2cccnc2)c1=O (stereo not drawn) [Compound 5B, 2-(2'-oxo-3'-methoxy-5'-isopropyl-3',5',7'-cycloheptatrienyl)-3-(3-picolyl)benzothiazoline] | 95.9 | 100 | 
9 | CC(C)c1ccc(CN2CCN(C(c3ccc(F)cc3)c3ccc(F)cc3)CC2)c(=O)c(N(C)CCN(C)C)c1 [Compound 5C, 7-[4-(4,4'-difluorobenzhydryl)piperazino-1-methyl]-2-(N-2-dimethylaminoethyl-N-methylamino)-4-isopropyl-2,4,6-cycloheptatrien-1-one] | 32.2 | 90.6 | 94
10 | COc1cc(C(C)C)ccc(CN2CCN(C(c3ccccc3)c3ccccc3)CC2)c1=O [Compound 6A, 7-(4-benzhydrylpiperazino-1-methyl)-4-isopropyl-2-methoxy-2,4,6-cycloheptatrien-1-one] | 15.9 | 63.2 | 100
11 | CCN(CCN(C)C)c1cc(C(C)C)ccc(CN2CCN(C(c3ccc(F)cc3)c3ccc(F)cc3)CC2)c1=O [Compound 6C, 7-[4-(4,4'-difluorobenzhydryl)piperazino-1-methyl]-2-(N-2-dimethylaminoethyl-N-ethylamino)-4-isopropyl-2,4,6-cycloheptatrien-1-one] | 35.9 | 91.5 | 87
12 | COc1cc(C(C)C)ccc(C2Sc3ccccc3N2CCc2ccccn2)c1=O (stereo not drawn) [Compound 7B, 2-(2'-oxo-3'-methoxy-5'-isopropyl-3',5',7'-cycloheptatrienyl)-3-[2-(2-pyridyl)ethyl]benzothiazoline] | 91.9 | 94.3 | 
13 | COc1ccc(CCN2c3ccccc3SC2c2ccc(C(C)C)cc(OC)c2=O)cc1OC (stereo not drawn) [Compound 8B, 2-(2'-oxo-3'-methoxy-5'-isopropyl-3',5',7'-cycloheptatrienyl)-3-[2-(3,4-dimethoxyphenyl)ethyl]benzothiazoline] | 93.4 | 93.8 | 
14 | COc1cc(C(C)C)ccc(C2Sc3ccccc3N2Cc2ccc3ccccc3n2)c1=O (stereo not drawn) [Compound 9B, 2-(2'-oxo-3'-methoxy-5'-isopropyl-3',5',7'-cycloheptatrienyl)-3-(2-quinolyl)methylbenzothiazoline] | 94.9 | 96.6 | 
15 | COc1cc(C(C)C)ccc(C2Sc3ccccc3N2CCCN2CCN(C(c3ccc(F)cc3)c3ccc(F)cc3)CC2)c1=O (stereo not drawn) [Compound 13B, 2-(2'-oxo-3'-methoxy-5'-isopropyl-3',5',7'-cycloheptatrienyl)-3-{3-[4-(4',4'-difluorobenzhydryl)piperazin-1-yl)propyl}benzothiazoline] | 91.8 | 94.4 | 
16 | CC(C)c1ccc(C2Sc3ccccc3N2CCc2ccccc2)c(=O)c(N2CCNCC2)c1 (stereo not drawn) [Compound 15B, 2-[2'-oxo-3'-(1-piperazinyl)-5'-isopropyl-3',5',7'-cycloheptatrienyl]-3-phenethylbenzothiazoline] | 93.0 | 94.4 | 
17 | CC(C)c1ccc(C2Sc3ccccc3N2CCc2ccccc2)c(=O)c(NCCN(C)C)c1 (stereo not drawn) [Compound 16B] | 91.2 | 95.1 | 
18 | CC(C)c1ccc(CN2CCN(C(c3ccc(F)cc3)c3ccc(F)cc3)CC2)c(=O)c(OCCCN(C)CCc2ccccc2)c1 [Compound 18A, 7-[4-(4,4'-difluorobenzhydryl)piperazino-1-methyl]-2-[3-(N-methyl-N-phenethylamino)propoxy]-4-isopropyl-2,4,6-cycloheptatrien-1-one] | 37.0 | 93.1 | 
